Assay results from patent US20190298717A1 (BOARD OF REGENTS, THE UNIVERSITY OF TEXAS SYSTEM, priority 2016, published 2019).
“Also recorded” adds a separate entry of the source.

Experiments:
SH-SY5Y cells = assay: MTT cell viability under H2O2 induced stress; type: cell-based, human; conditions: 100 μM H2O2 24 h; 10 and 25 μM compound; listed as hydralazine
Description: To generate intracellular aldehydes, the inventors treated human neuroblastoma cell line (SH-SY5Y) with 100 μM hydrogen peroxide (H2O2) for 24 h. Carbonyl groups were quantified using 2,4-DNPH (dinitrophenylhydrazine) assay.
(§1) Cell Viability and Cytotoxicity Assay. Cell growth was analyzed using the MTT cell viability assay. Briefly, at the end of incubation/treatment, MTT reagent was diluted in culture medium and aliquoted into each well. After incubation for 2 hours, the medium was aspirated and DMSO was aliquoted into each well to disrupt the cells and dissolve the intracellular MTT dyes. Absorbance was read at 570 nm wavelength in a 96-well plate reader. Cell toxicity was detected using a LDH cell toxicity assay kit (Promega, Fitchburg Wis.). This is a coupled enzymatic assay that detects a visible color signal initially described by Nachlas et. al. The reagent contained excess concentrations of lactate and NAD+as substrates to drive the LDH reaction and produce NADH. In the presence of diaphorase, NADH drives the enzyme-catalyzed conversion of iodonitro-tetrazolium violet to a red formazan product. Briefly, DMEM medium was withdrawn from each well of the plate after treatment and briefly centrifuged to get rid of floating cells or cell debris. […] The absorbance was read at 490 nm in a 96-well plate reader. […]

thioredoxin 1 (Trx1) = conditions: SH-SY5Y, after 24 h and 48 h
Description: (§2) Trx1 reduces the cysteine residues critical for binding of Nrf2 to AREs (Hansen et al., 2004).
(§3) Western Blot Analysis. Protein expression was determined by Western blot analysis. Equal amount of protein from each sample was run in Tris-glycine SDS PAGE gel, followed by transferring to PVDF membrane. After blocking the membrane with 5% milk for 1 hour at room temperature, the membrane was incubated further for 2 hours with antibodies specific for target proteins: Nrf2, pNrf2(S40) from Novus (Littleton, Colo.); Keap1, HO-1, NQO1, GCLc, GCLm and lamin B1 from Cell Signaling (Danvers, Mass.); GAPDH from Santa Cruz (Dallas, Tex.); β-Actin from Thermo Fisher (Waltham, Mass.). The membrane was subsequently incubated with species-specific HRP-conjugated secondary antibody followed by incubation with chemiluminescence substrate and imaging. The band intensity of each of the target proteins was quantified using ImageQuant software (GE Healthcare, Sweden). Western blot analysis on worm lystaes was done similarly. […] Equal amounts of protein were run on the gel and SKN-1 protein level was detected using anti-GFP antibody.

[1] = tested on: Nrf2 transcriptional activity (ARE)
Description: as §2
Nrf2 Transcriptional Activity Assay. The transcriptional activity of Nrf2 was determined using a luciferase-based transcription activation approach. A vector carrying a […] controlled luciferase gene (firefly luciferase) and a vector carrying the control luciferase (Renilla luciferase) from an ARE reporter kit (BPS Bioscience, San Diego, Calif.) was transiently co-transfected into the cells using Lipofectamine reagents (Thermo Fisher, Waltham, Mass.). […] Briefly, the cells were incubated with firefly luciferase substrate for 10 minutes prior to measurement luminescence in a 96-well luminescence plate reader. Subsequently, the Renilla luciferase was measured after the addition of Dual-Glo Stop & Glo reagent into the wells with a 10-minute incubation. The ratio of luminescence from firefly and Renilla was calculated to normalize and compare the Nrf2 transcriptional activity.

[2] = tested on: Nrf2 knockdown SH-SY5Y cells; conditions: Nrf2 siRNA knockdown, 24 h
Description: GSH is regulated by the rate-limiting enzyme GCL consisted of GCLc and GCLm subunits. […] The inventors then used extracellular lactate dehydrogenase cytotoxicity assay to measure cell survival.
as §1

[3] = tested on: HEK293 cells overexpressing tau residues 244 to 372, with mutations of P301L and V337M
Description: (§4) The inventors first measured the cell proliferation to evaluate the stress caused by expression of tau fibrils in aggregate-positive and negative cells (FIG. 6A). […] The inventors also measured the concentration of superoxide ions (O2-), a detrimental byproduct of oxidative phosphorylation, as an ROS representative. […] The inventors next measured expression of Nrf2 and HO-1 in the same cells (FIG. 6C). […] Aggregate-positive and -negative KD cells were treated with 200 μM H2O2 for 24 h. Cytotoxicity was measured as release of LDH.
(§5) Cell Viability and Cytotoxicity Assay. Cell growth was analyzed using the MTT cell viability assay. Briefly, at the end of incubation/treatment, MTT reagent was diluted in culture medium and aliquoted into each well. After incubation for 2 hours, the medium was aspirated and DMSO was aliquoted into each well to disrupt the cells and dissolve the intracellular MTT dyes. Absorbance was read at 570 nm wavelength in a 96-well plate reader. Cell toxicity was detected using a LDH cell toxicity assay kit (Promega, Fitchburg Wis.). This is a coupled enzymatic assay that detects a visible color signal initially described by Nachlas et. al. The reagent contained excess concentrations of lactate and NAD+as substrates to drive the LDH reaction and produce NADH. In the presence of diaphorase, NADH drives the enzyme-catalyzed conversion of iodonitro-tetrazolium violet to a red formazan product. Briefly, DMEM medium was withdrawn from each well of the plate after treatment and briefly centrifuged to get rid of floating cells or cell debris. Then, the medium supernatant was mixed with equal volume of substrate/enzyme mixture included in the kit (lactate, NAD+, diaphorase and iodonitro-tetrazolium violet), followed by incubation at room temperature for 15 minutes before the addition of acetic acid to cease the reaction. The absorbance was read at 490 nm in a 96-well plate reader. […] Cell viability assay was performed using CellTiter-Glo assay.

[4] = tested on: primary cortical neuronal cells; conditions: 0.1, 1, 10 μM, 1 μM rotenone, 24 hours
Description: as §4, §5

Nrf2 and HO-1 = tested on: Nrf2 and HO-1
Description: as §4, §3

C. elegans = tested on: C. elegans
Description: The inventors also evaluated locomotion in worms to investigate the health of the rescued animals.
Locomotion Assays. To measure locomotion, worms were subjected to 30 seconds video recording on a Zeiss Axio Zoom. V16 fluorescence dissecting microscope equipped with Axiocam 503 and ZEN2 software. Bending rate (the number of body-bends-per-seconds) was measured by placing live animals on a plate containing M9 buffer, filming for 30 seconds and counting the number of bends. Healthiness of the worms was measured by their bending rate of young, middle aged and aged animals. […] The results were obtained from 3 individual trials.

[5] = tested on: glutathione S-transferase-4 (GST-4)
Description: The inventors measured the expression of glutathione S-transferase-4 (GST-4), a downstream target of SKN-1, in a transgenic strain (CL2166) expressing GFP driven by the GST-4 promoter (Kahn et al., 2008).
Imaging. To measure the GFP intensity, synchronized populations of worms were anesthetized and arranged on agarose pad. The intestinal SKN-1::GFP was assayed by confocal microscopy (X40) (Nikon A1R, Nikon Instruments Inc., Melville, N.Y., USA) (FIG. 5A). The quantification of intestinal SKN-1::GFP was performed with ImageJ (FIG. 5B). The ASI SKN-1::GFP was assayed by a Zeiss Axiolmager M2 microscope equipped with a Hamamatsu Flash 4.0 Scientific c-mos camera and Zen2 software (X40) (FIG. 5D). The quantification of ASI SKN-1::GFP was performed with ImageJ using a sliding paraboloid algorithm for reducing the background followed by edge detection. The t-test was conducted with Welsh correction since the standard deviations were not equal (FIG. 5E). The GSTp::GFP intensity was measured same as ASI SKN-1::GFP but with ×5 magnification. The GSTp::GFP quantification was done using the whole worm signal following the same protocol as intestinal SKN-1::GFP (FIG. 5G).

[6] = tested on: SKN-1/Nrf2-stress response pathway; conditions: in vivo
Description: Treated and untreated populations, four biological replicates each, were then lysed, digested and analyzed by shotgun mass spectrometry for label-free quantification. […] An IPA analysis was performed using proteins with human orthologs.
Worms were lysed in 8M urea, 5% 1 M Tris-HCl pH 8.0 and 1× protease inhibitor cocktail EDTA-free (Thermo Fisher, Waltham Mass.) buffer with the aid of sonication. Lysates were centrifuged at 14000 g for 15 min at 4° C. and proteins in the supernatant were precipitated using cold acetone. Disulfide bonds were reduced and alkylated (by DTT and IAA respectively) before diluting the solution to 1.8 M with 25 mM TRIS-HCL pH 8.0. Proteins were digested overnight at 37° C. with trypsin (Promega, Fitchburg Wis.) in presence of 1 mM CaCl2. Peptides were acidified with TFA and purified using Oasis HLB plates (Waters, UK). A Dionex Ultimate 3000 UHPLC (Thermo) was coupled to an Orbitrap Fusion Lumos mass spectrometer for the separation and analysis of tryptic peptides. […]
LC-MS/MS raw data files were processed using the latest available MaxQuant software (v.1.5.3.30). […] The p-values for all the statistical analysis were calculated using a two-tailed student t-test as used for normally distributed data (we pre-processed intensities by binary logarithm).

Keap1-Nrf2 = Keap1-Nrf2 (Homo sapiens, UniProt Q14145); conditions: data not shown
GSK3β and Tau [7] = assay: p-GSK3β (S9) and p-Tau (S396) Western blot; conditions: 10 μM, 24 hours
Description: Densitometry values were normalized against actin. […] The levels of p-Tau and total Tau were measured by Western blot analysis. […] Densitometry values were normalized to actin using Image J software. All of the western blot quantification values (shown in the right panel) are mean±SD from two technical replicates (n=2).
A known GSK3β inhibitor LiCl (lithium chloride) (10 mM) was used as a positive control [9]. After the treatment, cells were lysed and equal amounts of total lysate were resolved on SDS-PAGE for western blot analysis using phospho-GSK3β (S9) (phosphorylation at this residue reduces the GSK3β kinase activity) and pTau antibodies [12,13]. […] The inventors analyzed the level of Tau phosphorylation at S396 (FIG. 18C).

GSK3β and Tau [8] = assay: p-GSK3β and p-Tau in Aβ (1-42) treated primary neurons; conditions: 1 μM, 24 hours
Description: Cells were transfected with tdTomato (red) plasmid to visualize structural and morphological changes of neurons. Nuclei were stained with DAPI (blue) scale bar=10 μm. […] Densitometry values were normalized using actin as an internal control.
Immunofluorescence assays were performed and the phosphorylation status of GSK3β and Tau proteins were analyzed in primary cells using pGSK3β (S9) and pTau (S396) antibodies. Primary cortical neurons were isolated from the cortex of 0 day pups, cultured for two weeks, and were transfected with tdTomato plasmid to visualize structural and morphological changes of neurons. […] At the end of the treatment cells were fixed and immunostained with respective antibodies.

[9] = tau aggregate cells treated with 0, 10, 20 μM (FIG. 6C), comparator not stated

Keap1-Nrf2, sequence (Q14145 whole entry): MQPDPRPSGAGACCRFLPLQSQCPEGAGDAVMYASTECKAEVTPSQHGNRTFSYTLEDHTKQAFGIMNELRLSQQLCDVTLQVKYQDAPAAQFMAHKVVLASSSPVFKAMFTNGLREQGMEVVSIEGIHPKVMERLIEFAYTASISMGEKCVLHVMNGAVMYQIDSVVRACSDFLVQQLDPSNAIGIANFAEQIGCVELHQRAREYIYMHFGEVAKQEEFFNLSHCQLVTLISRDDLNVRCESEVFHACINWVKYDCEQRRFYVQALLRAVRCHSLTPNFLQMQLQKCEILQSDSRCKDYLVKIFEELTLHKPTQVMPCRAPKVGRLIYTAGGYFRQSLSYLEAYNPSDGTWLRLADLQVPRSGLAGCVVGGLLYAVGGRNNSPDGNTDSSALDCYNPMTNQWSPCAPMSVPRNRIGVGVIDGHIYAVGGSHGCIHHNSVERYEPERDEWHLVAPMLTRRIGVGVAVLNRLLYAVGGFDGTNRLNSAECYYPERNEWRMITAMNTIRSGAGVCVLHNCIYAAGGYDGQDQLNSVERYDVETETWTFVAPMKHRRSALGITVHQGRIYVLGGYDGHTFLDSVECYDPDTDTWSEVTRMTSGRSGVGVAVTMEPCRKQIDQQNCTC

**Q.** Which results are given for `NNc1nncc2ccccc12` [Hydralazine]?
**A.** cell viability under H2O2 induced cell death (MTT) (SH-SY5Y cells): significantly improved; also recorded: provided protection in a dose-dependent manner; increase of the amount of Trx1 (thioredoxin 1 (Trx1)): 25%; ARE binding elevation ([1]; SH-SY5Y): 2 fold; luciferase activity compared to untreated cells ([1]; SH-SY5Y with ARE-luciferase reporter, 24 h, both concentrations): 2.0±0.2 folds; protection from H2O2-induced cytotoxicity in Nrf2 knockdown cells (LDH) [2]: no protection; cell viability under rotenone ([3]; 20 μM, 1 μM rotenone, 24 h): protects both aggregate-positive and negative cells; cell viability in Nrf2 KD cell line ([3]; Nrf2 knockdown tau cells): did not improve cell viability; cell growth of aggregate-positive cells ([3]; tau aggregate-positive HEK293): improved; viability of primary neuronal cells under rotenone [4]: rescues primary neuronal cells from rotenone toxicity in a dose-dependent manner; Nrf2 expression with hydralazine and rotenone compared to rotenone only (Nrf2 and HO-1; aggregate-positive cells, 20 μM, 1 μM rotenone, 24 h): higher; HO-1 expression increase (Nrf2 and HO-1; [9]): ~25%; Nrf2 expression, higher (Nrf2 and HO-1; [9]): 1.5 fold; locomotor performance in skn-1(zu135) animals (C. elegans; 4, 8, 12 days): did not improve; locomotor performance of young (5 days), middle age (10 days), and old (15 days) N2 animals (C. elegans; N2): significant improvement; locomotor performance of pre-treated animals exposed to rotenone (C. elegans; N2, 100 μM, 50 μM rotenone 6 h): superior locomotor performance; GST-4p::GFP signal in worms fed skn-1(RNAi) or skn-1(zu67) ([5]; 100 μM, 72 h): did not increase GFP signal; GST-4p::GFP signal ([5]; strain CL2166, 48 h after treatment): significant increase in the GFP signal; SKN-1/Nrf2-stress response pathway activation, IPA Z score [6]: 3.317; direct binding and interruption of Keap1-Nrf2 interaction (Keap1-Nrf2): ruled out the direct binding hypothesis; Tau phosphorylation at S396, compared to positive control LiCl (GSK3β and Tau [7]): reduces the hyper-phosphorylation of Tau even more; pGSK3β (S9) in primary cells (GSK3β and Tau [8]): marked increase; pTau in primary cells (GSK3β and Tau [8]): reduced level of pTau
